From US10906915B2, “Substituted pyrazoloazepin-4-ones and their use as phosphodiesterase inhibitors” (LEO Pharma A/S, priority 2016, dated 2021) come the findings set out here.

Where only a bound is given, the exact number is not on record here.

The target of this assay is human PDE4D catalytic domain (UniProt no. Q08499) (Homo sapiens (Human), UniProt Q08499). As to the kind of experiment: PDE4 assay (TR-FRET, FAM-cAMP cleavage). Type of assay: biochemical. To be noted: human PDE4D catalytic domain; molar concentration giving 50% inhibition of substrate cleavage; read-out: PDE4 IC50 range. In short, it runs like this: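 Read-out is time-resolved FRET from Tb donor to FAM-AMP captured on trivalent-metal nanoparticles added to stop the reaction. Substrate was a mix of plain and FAM-labelled cAMP, cleaved by human PDE4D catalytic domain ([…]) with titrated compound; IC50 ranges (nM) versus controls.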
human PDE4D catalytic domain, sequence (Q08499 380-740 limits assumed): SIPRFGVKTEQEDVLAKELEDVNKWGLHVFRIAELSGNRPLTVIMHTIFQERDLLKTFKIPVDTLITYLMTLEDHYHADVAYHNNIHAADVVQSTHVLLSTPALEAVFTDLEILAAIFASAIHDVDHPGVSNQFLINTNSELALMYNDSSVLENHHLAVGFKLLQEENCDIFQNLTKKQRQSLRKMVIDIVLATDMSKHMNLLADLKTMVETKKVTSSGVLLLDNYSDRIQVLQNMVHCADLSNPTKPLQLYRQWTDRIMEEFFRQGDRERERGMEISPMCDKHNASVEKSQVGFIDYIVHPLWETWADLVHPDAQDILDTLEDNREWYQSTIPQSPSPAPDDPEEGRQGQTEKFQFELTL
For orientation: TR-FRET usually uses a lanthanide donor and a delayed reading to cut background.
One may read the IC50 as the concentration at which inhibition is half-maximal. As to `CCc1nn(C[C@@H](C)COC(=O)c2ccc(C#N)c(F)c2)c2c1C(=O)NCC1(CCOCC1)C2` [Example 185, [(2R)-3-(3-ethyl-4-oxo-spiro[6,8-dihydro-5H-pyrazolo[4,3-c]azepine-7,4′-tetrahydropyran]-1-yl)-2-methyl-propyl] 4-cyano-3-fluoro-benzoate], the IC50 is under 100 nM.

With `CCc1nn(C[C@@H](C)COC(=O)c2ccc(OC)c(C)c2)c2c1C(=O)NCC1(CCOCC1)C2` [Example 186, [(2R)-3-(3-ethyl-4-oxo-spiro[6,8-dihydro-5H-pyrazolo[4,3-c]azepine-7,4′-tetrahydropyran]-1-yl)-2-methyl-propyl] 4-methoxy-3-methyl-benzoate], the IC50 was under 100 nM.

As to `CCc1nn(C[C@@H](C)COC(=O)c2ccc(C)cc2OC)c2c1C(=O)NCC1(CCOCC1)C2` [Example 187, [(2R)-3-(3-ethyl-4-oxo-spiro[6,8-dihydro-5H-pyrazolo[4,3-c]azepine-7,4′-tetrahydropyran]-1-yl)-2-methyl-propyl] 2-methoxy-4-methyl-benzoate], the IC50 is under 100 nM.

For `CCc1nn(C[C@@H](C)COC(=O)c2ccc(OC)c(F)c2)c2c1C(=O)NCC1(CCOCC1)C2` [Example 188, [(2R)-3-(3-ethyl-4-oxo-spiro[6,8-dihydro-5H-pyrazolo[4,3-c]azepine-7,4′-tetrahydropyran]-1-yl)-2-methyl-propyl] 3-fluoro-4-methoxy-benzoate], the IC50 is under 100 nM.

For `CCc1nn(C[C@@H](C)COC(=O)c2ccc(OC)cc2F)c2c1C(=O)NCC1(CCOCC1)C2` [Example 189, [(2R)-3-(3-ethyl-4-oxo-spiro[6,8-dihydro-5H-pyrazolo[4,3-c]azepine-7,4′-tetrahydropyran]-1-yl)-2-methyl-propyl] 2-fluoro-4-methoxy-benzoate], the IC50 was under 100 nM.

As to `CCc1nn(C[C@@H](C)COC(=O)c2cccc(OC)c2F)c2c1C(=O)NCC1(CCOCC1)C2` [Example 190, [(2R)-3-(3-ethyl-4-oxo-spiro[6,8-dihydro-5H-pyrazolo[4,3-c]azepine-7,4′-tetrahydropyran]-1-yl)-2-methyl-propyl] 2-fluoro-3-methoxy-benzoate], the 50% inhibitory concentration (IC50) is under 100 nM.

`CCc1nn(C[C@@H](C)COC(=O)c2cc(OC)ccc2F)c2c1C(=O)NCC1(CCOCC1)C2` [Example 191, [(2R)-3-(3-ethyl-4-oxo-spiro[6,8-dihydro-5H-pyrazolo[4,3-c]azepine-7,4′-tetrahydropyran]-1-yl)-2-methyl-propyl] 2-fluoro-5-methoxy-benzoate]: the IC50 is under 100 nM.

In the case of `CCc1nn(C[C@@H](C)COC(=O)c2cccc(F)c2OC)c2c1C(=O)NCC1(CCOCC1)C2` [Example 192, [(2R)-3-(3-ethyl-4-oxo-spiro[6,8-dihydro-5H-pyrazolo[4,3-c]azepine-7,4′-tetrahydropyran]-1-yl)-2-methyl-propyl] 3-fluoro-2-methoxy-benzoate], the IC50 is under 100 nM.

On to `CCc1nn(C[C@@H](C)COC(=O)c2ccc(F)c(OC)c2)c2c1C(=O)NCC1(CCOCC1)C2` [Example 193, [(2R)-3-(3-ethyl-4-oxo-spiro[6,8-dihydro-5H-pyrazolo[4,3-c]azepine-7,4′-tetrahydropyran]-1-yl)-2-methyl-propyl] 4-fluoro-3-methoxy-benzoate], for which the IC50 is under 100 nM.

Take `CCc1nn(C[C@@H](C)COC(=O)c2c(F)cccc2OC)c2c1C(=O)NCC1(CCOCC1)C2` [Example 194, [(2R)-3-(3-ethyl-4-oxo-spiro[6,8-dihydro-5H-pyrazolo[4,3-c]azepine-7,4′-tetrahydropyran]-1-yl)-2-methyl-propyl] 2-fluoro-6-methoxy-benzoate]: the IC50 is under 100 nM.

In the case of `CCc1nn(C[C@@H](C)COC(=O)c2ccc(F)cc2OC)c2c1C(=O)NCC1(CCOCC1)C2` [Example 195, [(2R)-3-(3-ethyl-4-oxo-spiro[6,8-dihydro-5H-pyrazolo[4,3-c]azepine-7,4′-tetrahydropyran]-1-yl)-2-methyl-propyl] 4-fluoro-2-methoxy-benzoate], the IC50 is under 100 nM.

As for `CCc1nn(C[C@@H](C)COC(=O)c2ccc(Cl)cc2C)c2c1C(=O)NCC1(CCOCC1)C2` [Example 196, [(2R)-3-(3-ethyl-4-oxo-spiro[6,8-dihydro-5H-pyrazolo[4,3-c]azepine-7,4′-tetrahydropyran]-1-yl)-2-methyl-propyl] 4-chloro-2-methyl-benzoate], the IC50 was under 100 nM.

For `CCc1nn(C[C@@H](C)COC(=O)c2ccc(C(F)F)cc2)c2c1C(=O)NCC1(CCOCC1)C2` [Example 197, [(2R)-3-(3-ethyl-4-oxo-spiro[6,8-dihydro-5H-pyrazolo[4,3-c]azepine-7,4′-tetrahydropyran]-1-yl)-2-methyl-propyl] 4-(difluoromethyl)benzoate], the IC50 is under 100 nM.

For the compound `CCc1nn(C[C@@H](C)COC(=O)c2cccc(Cl)c2F)c2c1C(=O)NCC1(CCOCC1)C2` [Example 198, [(2R)-3-(3-ethyl-4-oxo-spiro[6,8-dihydro-5H-pyrazolo[4,3-c]azepine-7,4′-tetrahydropyran]-1-yl)-2-methyl-propyl] 3-chloro-2-fluoro-benzoate], the IC50 is under 100 nM.

For `CCc1nn(C[C@@H](C)COC(=O)c2ccc(Cl)c(F)c2)c2c1C(=O)NCC1(CCOCC1)C2` [Example 199, [(2R)-3-(3-ethyl-4-oxo-spiro[6,8-dihydro-5H-pyrazolo[4,3-c]azepine-7,4′-tetrahydropyran]-1-yl)-2-methyl-propyl] 4-chloro-3-fluoro-benzoate], the IC50 was under 100 nM.

`CCc1nn(C[C@@H](C)COC(=O)c2cc(F)ccc2Cl)c2c1C(=O)NCC1(CCOCC1)C2` [Example 200, [(2R)-3-(3-ethyl-4-oxo-spiro[6,8-dihydro-5H-pyrazolo[4,3-c]azepine-7,4′-tetrahydropyran]-1-yl)-2-methyl-propyl] 2-chloro-5-fluoro-benzoate]: the IC50 is under 100 nM.

As to `CCc1nn(C[C@@H](C)COC(=O)c2cccc(F)c2Cl)c2c1C(=O)NCC1(CCOCC1)C2` [Example 201, [(2R)-3-(3-ethyl-4-oxo-spiro[6,8-dihydro-5H-pyrazolo[4,3-c]azepine-7,4′-tetrahydropyran]-1-yl)-2-methyl-propyl] 2-chloro-3-fluoro-benzoate], the IC50 was under 100 nM.

For the compound `CCc1nn(C[C@@H](C)COC(=O)c2cc(Cl)ccc2F)c2c1C(=O)NCC1(CCOCC1)C2` [Example 202, [(2R)-3-(3-ethyl-4-oxo-spiro[6,8-dihydro-5H-pyrazolo[4,3-c]azepine-7,4′-tetrahydropyran]-1-yl)-2-methyl-propyl] 5-chloro-2-fluoro-benzoate], the IC50 was under 100 nM.

For the compound `CCc1nn(C[C@@H](C)COC(=O)c2c(F)cccc2Cl)c2c1C(=O)NCC1(CCOCC1)C2` [Example 203, [(2R)-3-(3-ethyl-4-oxo-spiro[6,8-dihydro-5H-pyrazolo[4,3-c]azepine-7,4′-tetrahydropyran]-1-yl)-2-methyl-propyl] 2-chloro-6-fluoro-benzoate], the IC50 was under 100 nM.

Consider `CCc1nn(C[C@@H](C)COC(=O)c2ccc(F)c(Cl)c2)c2c1C(=O)NCC1(CCOCC1)C2` [Example 204, [(2R)-3-(3-ethyl-4-oxo-spiro[6,8-dihydro-5H-pyrazolo[4,3-c]azepine-7,4′-tetrahydropyran]-1-yl)-2-methyl-propyl] 3-chloro-4-fluoro-benzoate], for which the IC50 was under 100 nM.

As for `CCc1nn(C[C@@H](C)COC(=O)c2ccc(Cl)cc2F)c2c1C(=O)NCC1(CCOCC1)C2` [Example 205, [(2R)-3-(3-ethyl-4-oxo-spiro[6,8-dihydro-5H-pyrazolo[4,3-c]azepine-7,4′-tetrahydropyran]-1-yl)-2-methyl-propyl] 4-chloro-2-fluoro-benzoate], the IC50 is under 100 nM.

On to `CCc1nn(C[C@@H](C)COC(=O)c2ccc(OC)c(Cl)c2)c2c1C(=O)NCC1(CCOCC1)C2` [Example 206, [(2R)-3-(3-ethyl-4-oxo-spiro[6,8-dihydro-5H-pyrazolo[4,3-c]azepine-7,4′-tetrahydropyran]-1-yl)-2-methyl-propyl] 3-chloro-4-methoxy-benzoate], for which the IC50 was under 100 nM.

For `CCc1nn(C[C@@H](C)COC(=O)c2cccc(OC)c2Cl)c2c1C(=O)NCC1(CCOCC1)C2` [Example 207, [(2R)-3-(3-ethyl-4-oxo-spiro[6,8-dihydro-5H-pyrazolo[4,3-c]azepine-7,4′-tetrahydropyran]-1-yl)-2-methyl-propyl] 2-chloro-3-methoxy-benzoate], the IC50 is under 100 nM.

As to `CCc1nn(C[C@@H](C)COC(=O)c2ccc(Cl)c(OC)c2)c2c1C(=O)NCC1(CCOCC1)C2` [Example 208, [(2R)-3-(3-ethyl-4-oxo-spiro[6,8-dihydro-5H-pyrazolo[4,3-c]azepine-7,4′-tetrahydropyran]-1-yl)-2-methyl-propyl] 4-chloro-3-methoxy-benzoate], the IC50 is under 100 nM.

Regarding `CCc1nn(C[C@@H](C)COC(=O)c2cccc(Cl)c2OC)c2c1C(=O)NCC1(CCOCC1)C2` [Example 209, [(2R)-3-(3-ethyl-4-oxo-spiro[6,8-dihydro-5H-pyrazolo[4,3-c]azepine-7,4′-tetrahydropyran]-1-yl)-2-methyl-propyl] 3-chloro-2-methoxy-benzoate], the IC50 was under 100 nM.

For `CCc1nn(C[C@@H](C)COC(=O)c2cc(Cl)ccc2OC)c2c1C(=O)NCC1(CCOCC1)C2` [Example 210, [(2R)-3-(3-ethyl-4-oxo-spiro[6,8-dihydro-5H-pyrazolo[4,3-c]azepine-7,4′-tetrahydropyran]-1-yl)-2-methyl-propyl] 5-chloro-2-methoxy-benzoate], the IC50 was under 100 nM.

Regarding `CCc1nn(C[C@@H](C)COC(=O)c2ccc(Cl)cc2OC)c2c1C(=O)NCC1(CCOCC1)C2` [Example 211, [(2R)-3-(3-ethyl-4-oxo-spiro[6,8-dihydro-5H-pyrazolo[4,3-c]azepine-7,4′-tetrahydropyran]-1-yl)-2-methyl-propyl] 4-chloro-2-methoxy-benzoate], the IC50 is under 100 nM.
